Results: PubChem BioAssay AID296 (DTP/NCI, 2004)
“And” between values parts separate entries of the source, which are not always exact repeats. Identical values can stand only once. Results filed as inconclusive are left out.

Tested on: MX-1 breast xenograft, nude mice, tumor weight T/C
Experiment: NCI In Vivo Anticancer Drug Screen. Data for tumor model Human Mammary Carcinoma MX-1 Xenograft (intrarenal inoculation) in NU/NU Swiss (nude) mice
Conditions: endpoint: mean tumor weight change, higher = larger tumour
In short: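 Mice carrying the implanted tumor receive either test agent or vehicle. Tumor size or survival is then recorded for both groups. Results are stated as the treated-to-control quotient.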

[1] = dose: 25.0 mg/kg/injection, schedule: Q01DX010 (sc), vehicle: suspension in saline
[2] = dose: 50.0 mg/kg/injection, schedule: Q01DX010 (sc), vehicle: saline
[3] = dose: 300.0 mg/kg/injection, schedule: Q04DX003 (sc), vehicle: saline
[4] = dose: 75.0 mg/kg/injection, schedule: Q04DX003 (sc), vehicle: saline with Tween-80
[5] = dose: 150.0 mg/kg/injection, schedule: Q04DX003 (sc), vehicle: saline with Tween-80
[6] = dose: 300.0 mg/kg/injection, schedule: Q04DX003 (sc), vehicle: saline with Tween-80
[7] = dose: 1200.0 mg/kg/injection, schedule: Q04DX003 (sc), vehicle: saline with Tween-80
[8] = dose: 600.0 mg/kg/injection, schedule: Q04DX003 (sc), vehicle: saline with Tween-80
[9] = dose: 2400.0 mg/kg/injection, schedule: Q04DX003 (sc), vehicle: saline with Tween-80

## Oc1ccccc1C=NCCC[N-]CCCN=Cc1ccccc1O.[Co]
[1]
  T/C: 85 % of control
dose: 50.0 mg/kg/injection, schedule: Q01DX010 (sc), vehicle: suspension in saline
  T/C: 93 % of control
dose: 100.0 mg/kg/injection, schedule: Q01DX010 (sc), vehicle: suspension in saline
  T/C: 40 % of control
dose: 200.0 mg/kg/injection, schedule: Q01DX010 (sc), vehicle: suspension in saline
  T/C: 31 % of control

## C1OC1CN1CCN(CC2CO2)CC1 (centres undefined)
dose: 8.0 mg/kg/injection, schedule: Q01DX010 (sc), vehicle: suspension in saline
  T/C: 289 % of control
dose: 16.0 mg/kg/injection, schedule: Q01DX010 (sc), vehicle: saline
  T/C: 8 % of control and 33 % of control
dose: 16.0 mg/kg/injection, schedule: Q01DX010 (sc), vehicle: suspension in saline
  T/C: 98 % of control

## N=C(N)c1ccc(/C=C/c2ccc(C(=N)N)cc2O)cc1
dose: 37.5 mg/kg/injection, schedule: Q04DX003 (sc), vehicle: water
  T/C: 87 % of control
dose: 75.0 mg/kg/injection, schedule: Q04DX003 (sc), vehicle: water
  T/C: 83 % of control
dose: 150.0 mg/kg/injection, schedule: Q04DX003 (sc), vehicle: water
  T/C: 89 % of control
dose: 300.0 mg/kg/injection, schedule: Q04DX003 (sc), vehicle: water
  T/C: 77 % of control

## COc1cccc2c1C(=O)c1c(O)c3c(c(O)c1C2=O)CC(O)(C(=O)CO)CC3OC1CC(N)C(O)C(C)O1 (centres undefined)
dose: 12.0 mg/kg/injection, schedule: Q01DX010 (sc), vehicle: saline
  T/C: 90 % of control
dose: 24.0 mg/kg/injection, schedule: Q01DX010 (sc), vehicle: saline
  T/C: 80 % of control
dose: 25.0 mg/kg/injection, schedule: Q01DX010 (sc), vehicle: saline
  T/C: 78 % of control
dose: 37.5 mg/kg/injection, schedule: Q01DX010 (sc), vehicle: water
  T/C: 281 % of control
dose: 48.0 mg/kg/injection, schedule: Q01DX010 (sc), vehicle: saline
  T/C: 9 % of control
[2]
  T/C: 22 % of control
dose: 75.0 mg/kg/injection, schedule: Q01DX010 (sc), vehicle: water
  T/C: 229 % of control
dose: 96.0 mg/kg/injection, schedule: Q01DX010 (sc), vehicle: saline
  T/C: 4 % of control
dose: 150.0 mg/kg/injection, schedule: Q01DX010 (sc), vehicle: water
  T/C: 233 % of control
dose: 300.0 mg/kg/injection, schedule: Q01DX010 (sc), vehicle: water
  T/C: 81 % of control

## Cc1ccccc1CN1C2=NCCN2C(=O)C2=C1CCN(S(=O)(=O)c1ccc(Cl)c(S(N)(=O)=O)c1)C2
[3]
  T/C: 59 % of control
dose: 600.0 mg/kg/injection, schedule: Q04DX003 (sc), vehicle: saline
  T/C: 122 % of control
dose: 1200.0 mg/kg/injection, schedule: Q04DX003 (sc), vehicle: saline
  T/C: 109 % of control

## CCCCC1CCCCCCc2[nH]c(/C=C3\N=C(c4ccc[nH]4)C=C3OC)cc21 (centres undefined)
dose: 4.0 mg/kg/injection, schedule: Q04DX003 (sc), vehicle: saline with Tween-80
  T/C: 82 % of control
dose: 8.0 mg/kg/injection, schedule: Q04DX003 (sc), vehicle: saline with Tween-80
  T/C: 107 % of control
dose: 16.0 mg/kg/injection, schedule: Q04DX003 (sc), vehicle: saline with Tween-80
  T/C: 105 % of control
dose: 32.0 mg/kg/injection, schedule: Q04DX003 (sc), vehicle: saline with Tween-80
  T/C: 80 % of control

## CCN(CC)CCC(=O)c1ccccc1
[4]
  T/C: 94 % of control
[5]
  T/C: 100 % of control
[6]
  T/C: 115 % of control

## C1OCN2CSCC12 (centres undefined)
dose: 100.0 mg/kg/injection, schedule: Q04DX003 (sc), vehicle: saline with Tween-80
  T/C: 94 % of control
dose: 200.0 mg/kg/injection, schedule: Q04DX003 (sc), vehicle: saline with Tween-80
  T/C: 158 % of control
dose: 400.0 mg/kg/injection, schedule: Q04DX003 (sc), vehicle: saline with Tween-80
  T/C: 80 % of control

## CO[C@@]12[C@@H]3N[C@@H]3CN1C1=C(C(=O)C(NCCc3ccccn3)=C(C)C1=O)[C@@H]2COC(N)=O
dose: 6.25 mg/kg/injection, schedule: Q04DX003 (ip), vehicle: saline with Tween-80
  T/C: -84 % of control
dose: 12.5 mg/kg/injection, schedule: Q04DX003 (ip), vehicle: saline with Tween-80
  T/C: -21 % of control
dose: 25.0 mg/kg/injection, schedule: Q04DX003 (ip), vehicle: saline with Tween-80
  T/C: -95 % of control

## Cc1cc(N(CC(C)Br)CC(C)Br)ccc1N=Nc1ccccc1C(=O)O (centres undefined)
dose: 3.13 mg/kg/injection, schedule: Q01DX010 (sc), vehicle: saline with Tween-80
  T/C: 10 % of control and 12 % of control
dose: 6.25 mg/kg/injection, schedule: Q01DX010 (sc), vehicle: saline with Tween-80
  T/C: -46 % of control
dose: 12.5 mg/kg/injection, schedule: Q01DX010 (sc), vehicle: saline with Tween-80
  T/C: -79 % of control

## COc1cc(NS(C)(=O)=O)ccc1Nc1c2ccccc2nc2ccccc12
dose: 0.75 mg/kg/injection, schedule: Q01DX010 (sc), vehicle: lactic acid
  T/C: 124 % of control
dose: 3.75 mg/kg/injection, schedule: Q01DX010 (sc), vehicle: clinical formulation
  T/C: 54 % of control

## CC1=C(/C=C/C(C)=C/C=C/C(C)=C/C=O)C(C)(C)CCC1
[5]
  T/C: 88 % of control
[6]
  T/C: 98 % of control
[7]
  T/C: 53 % of control

## CC(Cc1ccc(O)cc1)NCC(O)c1ccc(O)c(O)c1 (centres undefined)
[4]
  T/C: 91 % of control
[5]
  T/C: 96 % of control
[8]
  T/C: 67 % of control
[7]
  T/C: 82 % of control
[9]
  T/C: 45 % of control

## CN1C(=O)C(=Cc2ccc(O)cc2)C(=O)N(C)C1=O
[6]
  T/C: 96 % of control
[8]
  T/C: 92 % of control
[7]
  T/C: 99 % of control
[9]
  T/C: 107 % of control

## OC1CCCC2CCCNC12 (centres undefined)
dose: 37.5 mg/kg/injection, schedule: Q04DX003 (sc), vehicle: saline with Tween-80
  T/C: 76 % of control
[4]
  T/C: 85 % of control

## Cc1c2ccccc2cc2cccc[n+]12
dose: 7.5 mg/kg/injection, schedule: Q04DX003 (sc), vehicle: saline
  T/C: 74 % of control
dose: 15.0 mg/kg/injection, schedule: Q04DX003 (sc), vehicle: saline
  T/C: 88 % of control
dose: 30.0 mg/kg/injection, schedule: Q04DX003 (sc), vehicle: saline
  T/C: 67 % of control

## O=CC(=O)c1ccc(O)cc1
dose: 150.0 mg/kg/injection, schedule: Q04DX003 (sc), vehicle: saline
  T/C: 95 % of control
[3]
  T/C: 69 % of control

## O=c1[nH]c(=O)n(C2OC(CO)C(O)C2O)cc1F (centres undefined)
dose: 9.38 mg/kg/injection, schedule: Q01DX010 (sc), vehicle: saline
  T/C: 21 % of control

## CCSC(=O)N1c2ccc(OC)cc2C=CC1C#N (centres undefined)
[8]
  T/C: 119 % of control
[7]
  T/C: 85 % of control
[9]
  T/C: 57 % of control
dose: 4800.0 mg/kg/injection, schedule: Q04DX003 (sc), vehicle: saline with Tween-80
  T/C: 40 % of control

## C=C(C)[C@H]1Cc2c(ccc3c2O[C@@H]2COc4cc(OC)c(OC)cc4[C@@H]2C3=O)O1
dose: 4.0 mg/kg/injection, schedule: Q01DX010 (sc), vehicle: saline with Tween-80
  T/C: 94 % of control
dose: 8.0 mg/kg/injection, schedule: Q01DX010 (sc), vehicle: saline with Tween-80
  T/C: 80 % of control

## O=C1C=CN(C2OC(CO)C(O)C2O)C(=O)C1 (centres undefined)
[2]
  T/C: 92 % of control
dose: 100.0 mg/kg/injection, schedule: Q01DX010 (sc), vehicle: saline
  T/C: 41 % of control
dose: 200.0 mg/kg/injection, schedule: Q01DX010 (sc), vehicle: saline
  T/C: 27 % of control
dose: 400.0 mg/kg/injection, schedule: Q01DX010 (sc), vehicle: saline
  T/C: 75 % of control

## O=C(O)CSc1c(Cl)c(=O)oc2ccc(Cl)cc12
dose: 75.0 mg/kg/injection, schedule: Q04DX003 (sc), vehicle: Klucel (hydroxypropylcellulose) (HPC)
  T/C: 87 % of control
dose: 150.0 mg/kg/injection, schedule: Q04DX003 (sc), vehicle: Klucel (hydroxypropylcellulose) (HPC)
  T/C: 61 % of control and 75 % of control
dose: 300.0 mg/kg/injection, schedule: Q04DX003 (sc), vehicle: Klucel (hydroxypropylcellulose) (HPC)
  T/C: 54 % of control and 62 % of control

## CC(=O)C(=O)O.CC(=O)C(=O)O.[NH-]C1CCCCC1[NH-].[Pt+2] (centres undefined)
dose: 6.25 mg/kg/injection, schedule: Q04DX003 (ip), vehicle: other
  T/C: 46 % of control
dose: 12.5 mg/kg/injection, schedule: Q04DX003 (ip), vehicle: other
  T/C: 74 % of control
dose: 25.0 mg/kg/injection, schedule: Q04DX003 (ip), vehicle: other
  T/C: 45 % of control
dose: 50.0 mg/kg/injection, schedule: Q04DX003 (ip), vehicle: other
  T/C: 12 % of control
dose: 100.0 mg/kg/injection, schedule: Q04DX003 (ip), vehicle: other
  T/C: 9 % of control

## CS(=O)(=O)c1ncc(Br)cn1
[1]
  T/C: 79 % of control
[4]
  T/C: 98 % of control
[5]
  T/C: 121 % of control
[6]
  T/C: 119 % of control
